From PubChem BioAssay AID1745844 (Carcinogenic Potency Database (CPDB), 2022)

System: rodent lifetime carcinogenesis bioassay, tumor incidence TD50
Assay: chronic cancer bioassays in animals – CPDB, compiled studies (AID 1745844)
Conditions: in feed

In the case of `Nc1c(Br)cc(Br)c2c1C(=O)c1ccccc1C2=O`, the TD50 (mouse, strain B6C3F1, females, site: any site (literature study), lesion: several types, types named in the paper, dosed 104 weeks, study length 104 weeks) is reported as 1030 mg/kg/day, the TD50 (mouse, strain B6C3F1, females, site: forestomach + liver + lung, lesion: squamous-cell carcinoma + squamous-cell papilloma + hepatocellular adenoma + hepatocellular carcinoma + alveolar/bronchiolar ade, dosed 104 weeks, study length 104 weeks) is reported as 546 mg/kg/day and the TD50 (mouse, strain B6C3F1, females, site: forestomach, lesion: squamous-cell carcinoma + squamous-cell papilloma, dosed 104 weeks, study length 104 weeks) is reported as 1230 mg/kg/day. It also gave a TD50 (mouse, strain B6C3F1, females, site: forestomach, lesion: squamous-cell carcinoma, dosed 104 weeks, study length 104 weeks) of 3930 mg/kg/day, a TD50 (mouse, strain B6C3F1, females, site: forestomach, lesion: squamous-cell papilloma, dosed 104 weeks, study length 104 weeks) of 1760 mg/kg/day and a TD50 (mouse, strain B6C3F1, females, site: liver, lesion: hepatocellular adenoma + hepatoblastoma + hepatocellular carcinoma, dosed 104 weeks, study length 104 weeks) of 490 mg/kg/day. It also gave a TD50 (mouse, strain B6C3F1, females, site: liver, lesion: hepatocellular adenoma + hepatocellular carcinoma, dosed 104 weeks, study length 104 weeks) of 490 mg/kg/day, a TD50 (mouse, strain B6C3F1, females, site: liver, lesion: hepatocellular adenoma, dosed 104 weeks, study length 104 weeks) of 515 mg/kg/day and a TD50 (mouse, strain B6C3F1, females, site: liver, lesion: hepatocellular carcinoma, dosed 104 weeks, study length 104 weeks) of 1530 mg/kg/day. The TD50 (mouse, strain B6C3F1, females, site: lung, lesion: alveolar/bronchiolar adenoma + alveolar/bronchiolar carcinoma, dosed 104 weeks, study length 104 weeks) was 1990 mg/kg/day, the TD50 (mouse, strain B6C3F1, females, site: lung, lesion: alveolar/bronchiolar adenoma, dosed 104 weeks, study length 104 weeks) was 1990 mg/kg/day and the TD50 (mouse, strain B6C3F1, females, site: pituitary gland, lesion: pars distalis adenoma, dosed 104 weeks, study length 104 weeks) was 3750 mg/kg/day. The TD50 (mouse, strain B6C3F1, females, site: uterus, lesion: endometrial stromal polyp + endometrial stromal sarcoma, dosed 104 weeks, study length 104 weeks) was 6820 mg/kg/day, the TD50 (mouse, strain B6C3F1, males, site: any site (literature study), lesion: several types, types named in the paper, dosed 103 weeks, study length 104 weeks) was 566 mg/kg/day and the TD50 (mouse, strain B6C3F1, males, site: forestomach + liver + lung, lesion: squamous-cell carcinoma + squamous-cell papilloma + hepatocellular adenoma + hepatoblastoma + hepatocellular carcinoma + alveolar/, dosed 103 weeks, study length 104 weeks) was 465 mg/kg/day. It also gave a TD50 (mouse, strain B6C3F1, males, site: forestomach, lesion: squamous-cell carcinoma + squamous-cell papilloma, dosed 103 weeks, study length 104 weeks) of 1130 mg/kg/day, a TD50 (mouse, strain B6C3F1, males, site: forestomach, lesion: squamous-cell carcinoma, dosed 103 weeks, study length 104 weeks) of 2730 mg/kg/day and a TD50 (mouse, strain B6C3F1, males, site: forestomach, lesion: squamous-cell papilloma, dosed 103 weeks, study length 104 weeks) of 1680 mg/kg/day. For the same compound, the TD50 (mouse, strain B6C3F1, males, site: liver, lesion: hepatoblastoma + hepatocellular carcinoma, dosed 103 weeks, study length 104 weeks) was 1870 mg/kg/day, the TD50 (mouse, strain B6C3F1, males, site: liver, lesion: hepatoblastoma, dosed 103 weeks, study length 104 weeks) was 9250 mg/kg/day and the TD50 (mouse, strain B6C3F1, males, site: liver, lesion: hepatocellular adenoma + hepatoblastoma + hepatocellular carcinoma, dosed 103 weeks, study length 104 weeks) was 467 mg/kg/day. It also gave a TD50 (mouse, strain B6C3F1, males, site: liver, lesion: hepatocellular adenoma + hepatocellular carcinoma, dosed 103 weeks, study length 104 weeks) of 467 mg/kg/day, a TD50 (mouse, strain B6C3F1, males, site: liver, lesion: hepatocellular adenoma, dosed 103 weeks, study length 104 weeks) of 464 mg/kg/day and a TD50 (mouse, strain B6C3F1, males, site: liver, lesion: hepatocellular carcinoma, dosed 103 weeks, study length 104 weeks) of 2240 mg/kg/day. It also gave a TD50 (mouse, strain B6C3F1, males, site: lung, lesion: alveolar/bronchiolar adenoma + alveolar/bronchiolar carcinoma, dosed 103 weeks, study length 104 weeks) of 817 mg/kg/day, a TD50 (mouse, strain B6C3F1, males, site: lung, lesion: alveolar/bronchiolar adenoma, dosed 103 weeks, study length 104 weeks) of 831 mg/kg/day and a TD50 (rat, strain Fischer 344, females, site: any site (literature study), lesion: several types, types named in the paper, dosed 40 weeks, study length 66 weeks) of 135 mg/kg/day. For the same compound, the TD50 (rat, strain Fischer 344, females, site: any site (literature study), lesion: several types, types named in the paper, dosed 66 weeks, study length 66 weeks) was 147 mg/kg/day, the TD50 (rat, strain Fischer 344, females, site: any site (literature study), lesion: several types, types named in the paper, dosed 103 weeks, study length 104 weeks) was 160 mg/kg/day and the TD50 (rat, strain Fischer 344, females, site: cecum + colon + kidney + liver + rectum + urinary bladder, lesion: polypoid adenoma + adenocarcinoma + tubule adenoma + tubule carcinoma + hepatocholangiocarcinoma + hepatocellular adenoma + hepatoce, dosed 103 weeks, study length 104 weeks) was 31 mg/kg/day. For the same compound, the TD50 (rat, strain Fischer 344, females, site: cecum + colon + rectum, lesion: polypoid adenoma, dosed 40 weeks, study length 66 weeks) was 217 mg/kg/day, the TD50 (rat, strain Fischer 344, females, site: cecum + colon + rectum, lesion: polypoid adenoma, dosed 66 weeks, study length 66 weeks) was 1270 mg/kg/day and the TD50 (rat, strain Fischer 344, females, site: cecum + colon + rectum, lesion: polypoid adenoma, dosed 103 weeks, study length 104 weeks) was 72.9 mg/kg/day. For the same compound, the TD50 (rat, strain Fischer 344, females, site: colon + rectum, lesion: adenocarcinoma, dosed 103 weeks, study length 104 weeks) was 414 mg/kg/day, the TD50 (rat, strain Fischer 344, females, site: kidney, lesion: tubule adenoma + tubule carcinoma, dosed 40 weeks, study length 66 weeks) was 418 mg/kg/day and the TD50 (rat, strain Fischer 344, females, site: kidney, lesion: tubule adenoma + tubule carcinoma, dosed 66 weeks, study length 66 weeks) was 1520 mg/kg/day. The TD50 (rat, strain Fischer 344, females, site: kidney, lesion: tubule adenoma + tubule carcinoma, dosed 103 weeks, study length 104 weeks) was 388 mg/kg/day, the TD50 (rat, strain Fischer 344, females, site: kidney, lesion: tubule adenoma, dosed 40 weeks, study length 66 weeks) was 418 mg/kg/day and the TD50 (rat, strain Fischer 344, females, site: kidney, lesion: tubule adenoma, dosed 66 weeks, study length 66 weeks) was 1520 mg/kg/day. The TD50 (rat, strain Fischer 344, females, site: kidney, lesion: tubule adenoma, dosed 103 weeks, study length 104 weeks) was 388 mg/kg/day, the TD50 (rat, strain Fischer 344, females, site: liver, lesion: hepatocellular adenoma + hepatoblastoma + hepatocellular carcinoma, dosed 40 weeks, study length 66 weeks) was 121 mg/kg/day and the TD50 (rat, strain Fischer 344, females, site: liver, lesion: hepatocellular adenoma + hepatoblastoma + hepatocellular carcinoma, dosed 66 weeks, study length 66 weeks) was 121 mg/kg/day. The TD50 (rat, strain Fischer 344, females, site: liver, lesion: hepatocellular adenoma + hepatoblastoma + hepatocellular carcinoma, dosed 103 weeks, study length 104 weeks) was 40.1 mg/kg/day, the TD50 (rat, strain Fischer 344, females, site: liver, lesion: hepatocellular adenoma + hepatocellular carcinoma, dosed 40 weeks, study length 66 weeks) was 121 mg/kg/day and the TD50 (rat, strain Fischer 344, females, site: liver, lesion: hepatocellular adenoma + hepatocellular carcinoma, dosed 66 weeks, study length 66 weeks) was 121 mg/kg/day. It also gave a TD50 (rat, strain Fischer 344, females, site: liver, lesion: hepatocellular adenoma + hepatocellular carcinoma, dosed 103 weeks, study length 104 weeks) of 40.1 mg/kg/day, a TD50 (rat, strain Fischer 344, females, site: liver, lesion: hepatocellular adenoma, dosed 40 weeks, study length 66 weeks) of 191 mg/kg/day and a TD50 (rat, strain Fischer 344, females, site: liver, lesion: hepatocellular adenoma, dosed 66 weeks, study length 66 weeks) of 219 mg/kg/day. It also gave a TD50 (rat, strain Fischer 344, females, site: liver, lesion: hepatocellular adenoma, dosed 103 weeks, study length 104 weeks) of 53.9 mg/kg/day, a TD50 (rat, strain Fischer 344, females, site: liver, lesion: hepatocellular carcinoma, dosed 40 weeks, study length 66 weeks) of 167 mg/kg/day and a TD50 (rat, strain Fischer 344, females, site: liver, lesion: hepatocellular carcinoma, dosed 66 weeks, study length 66 weeks) of 124 mg/kg/day. It also gave a TD50 (rat, strain Fischer 344, females, site: liver, lesion: hepatocellular carcinoma, dosed 103 weeks, study length 104 weeks) of 88.4 mg/kg/day.
